Series [1] relates to LPS-induced lung neutrophilia. As to the kind of experiment: LPS-induced lung neutrophilia: total and neutrophil cell counts in BALF. Type of series: in vivo, BALB/c mice. The note with it: for Neutrophils in BALF: % reduction / Total cells/white blood cells in BALF: % reduction / Neutrophils in BALF, Mean / Total cells/white blood cells in BALF, Mean / Neutrophils in BALF, individual mice / Total cells/white blood cells in BALF, individual mice: LPS; for Neutrophils in BALF, Mean / Total cells/white blood cells in BALF, Mean / Neutrophils in BALF, individual mice / Total cells/white blood cells in BALF, individual mice: BALF 4 h after LPS. Here is the method:
Six-week-old male BALB/c mice (Charles River, Calco, Italy) were singly housed in a temperature-controlled (22°C±2°C) environment with a 12:12-hour light:dark cycle and free access to food and water. Mice were given ≥7 days for acclimation before all procedures. […] One day before the start of experimental procedures, all animals were randomized into 6 groups (n = 8/group). Animal group assignment was not blinded.
LPS lyophilized powder (2 mg; Sigma-Aldrich Chemie GmbH, Munich, Germany) from Escherichia coli (O111:B4) was dissolved in 10 mL cold saline (0.9%; Pliva, Zagreb, Croatia), vortexed, and further diluted by mixing 2 mL of this solution with 2 mL saline to reach a final concentration of 5 μg LPS/50 μL saline. […] Ketamine hydrochloride (Narketan 10) was acquired from Vetoquinol (Bern, Switzerland), and xylazine hydrochloride (Rompun, 2%) was acquired from Bayer (Leverkusen, Germany).
To induce pulmonary neutrophilia, mice in the control group received intranasal (IN) 50 μL saline, and all other animals received 5 μg LPS/50 μL saline IN per mouse.
Tracheostomy was performed, and a Buster cat catheter (1.0 × 130 mm; Kruuse, Langeskov, Denmark), shortened to 3 cm, was clamped into the trachea. The lungs were washed 3 times with cold phosphate-buffered saline (PBS; Sigma-Aldrich Chemie GmbH) in a total volume of 1 mL (0.4, 0.3, and 0.3 mL). The collected BALF samples were centrifuged (1303×g, 5 min, 4°C), and resulting cell pellets were each resuspended in 600 μL PBS. Samples were immediately analyzed for total and differential neutrophil cell counts via automated hematology analyzer (XT-2000iV; Sysmex, Kobe, Japan).
Differences between treated versus vehicle groups were determined using the Mann-Whitney test and were considered statistically significant when P<0.05. Outliers in the analysis of cytokine and chemokine concentrations were identified using the Grubbs test. No criteria were set for inclusion/exclusion of animals during the experiment or data points during the analysis.

The test system of a further series is human neutrophils. In words: Cytotoxicity in human neutrophils (CellTiter Glo). Type of series: cell-based. The note with it: ≤100 μM, cytotoxic if reduction from vehicle ≥20%. Here is the method:
For the chemotaxis and cytotoxicity evaluations, average relative light unit values were calculated from all untreated vehicle samples and, for each sample, percentage of vehicle value was calculated. The tested compound was considered cytotoxic if reduction from untreated vehicle was ≥20%.
(In general: In ATP-based viability assays light output follows the ATP content of the culture.)

The subject of a further series is human PBMCs. In words: Cytotoxicity in human PBMCs (adenylate kinase release, ToxiLight). Type of series: cell-based. The conditions noted are these: PBMCs; ≤100 μM. Here is the method: (§1) The effect of t est compounds on cell viabilit y of J 774.2 macrophages and human PBMCs […]
(§2) was determined b y comp aring th e aden yl ate kinas e signal obtain ed in the p resence of diff er ent concentrations of compounds with those obtained in DMSO (vehicle) control. Signals were […]
(§3) divided,and the results were ex pressed as fold-change versus v ehicle con trol .

Another series deals with J774.2 mouse macrophages. As to the kind of experiment: Cytotoxicity in J774.2 mouse macrophages (adenylate kinase release, ToxiLight). Type of series: cell-based. The conditions noted are these: J774.2 cells; 100 μM. Here is the method:
as §1, §2, §3

Setting [2] is: Experiment 1, 10 mg/kg SC, listed as Azi, 10 mg/kg.
The mark [3] stands for this setting: Experiment 1, 30 mg/kg SC, listed as Azi, 30 mg/kg.
[4] abbreviates: Experiment 1, 100 mg/kg SC, listed as Azi, 100 mg/kg.
Where [5] appears, read: Experiment 1, 1 mg/kg (IP), 1 mg/kg.
The mark [6] stands for this setting: Experiment 2, 0.5 mg/kg (PO), 0.5 mg/kg.

“And” between values parts separate entries of the source, which are not always exact repeats. Equal values may be shown once.

Turning to `CC[C@H]1OC(=O)[C@H](C)[C@@H](O[C@H]2C[C@@](C)(OC)[C@@H](O)[C@H](C)O2)[C@H](C)[C@@H](O[C@@H]2O[C@H](C)C[C@H](N(C)C)[C@H]2O)[C@](C)(O)C[C@@H](C)CN(C)[C@H](C)[C@@H](O)[C@]1(C)O` [Azithromycin], the “total cell and neutrophil recruitment to the lungs (measured in BALF)” value in series [1] (10, 30, and 100 mg/kg SC 30 min before intranasal LPS, 4 hours postchallenge, vs vehicle control) is “significant dose-dependent reductions”. Besides, the “Neutrophils in BALF: % reduction” value in series [1] (Experiment 1, 10 mg/kg SC) is on record as 42%; in series [1] (Experiment 1, 30 mg/kg SC), 45%; in series [1] (Experiment 1, 100 mg/kg SC) it was 57%. The “Total cells/white blood cells in BALF: % reduction” value stood at 68% in series [1] (Experiment 1, 10 mg/kg SC); 71% in series [1] (Experiment 1, 30 mg/kg SC); 95% in series [1] (Experiment 1, 100 mg/kg SC). The “Neutrophils in BALF, Mean” value in series [1] (Experiment 1, 10 mg/kg SC) came to 3e+08 L⁻¹; in series [1] (Experiment 1, 30 mg/kg SC), 2.9e+08 L⁻¹; in series [1] (Experiment 1, 100 mg/kg SC), 2.3e+08 L⁻¹. Also, the “Total cells/white blood cells in BALF, Mean” value in series [1] (Experiment 1, 10 mg/kg SC) is 4.4e+08 L⁻¹; in series [1] (Experiment 1, 30 mg/kg SC), 4.4e+08 L⁻¹; in series [1] (Experiment 1, 100 mg/kg SC), 3.7e+08 L⁻¹. The “Neutrophils in BALF, individual mice” value is 3.8e+08 L⁻¹ and 3.6e+08 L⁻¹ and 3e+08 L⁻¹ and 2.9e+08 L⁻¹ and 2.7e+08 L⁻¹ and 8e+07 L⁻¹ and 3.4e+08 L⁻¹ in series [1] (setting [2]); 2.5e+08 L⁻¹ and 5.9e+08 L⁻¹ and 2.3e+08 L⁻¹ and 2.1e+08 L⁻¹ and 4.6e+08 L⁻¹ and 1.7e+08 L⁻¹ and 2e+08 L⁻¹ in series [1] (setting [3]); 3.6e+08 L⁻¹ and 2.2e+08 L⁻¹ and 1.7e+08 L⁻¹ and 1.3e+08 L⁻¹ and 3.4e+08 L⁻¹ and 2.5e+08 L⁻¹ and 1.5e+08 L⁻¹ and 1.9e+08 L⁻¹ in series [1] (setting [4]). Also, the “Total cells/white blood cells in BALF, individual mice” value is 1.5e+08 L⁻¹ and 4.9e+08 L⁻¹ and 5.5e+08 L⁻¹ and 6.2e+08 L⁻¹ and 3.6e+08 L⁻¹ and 5.1e+08 L⁻¹ and 3.8e+08 L⁻¹ in series [1] (setting [2]); 2.5e+08 L⁻¹ and 3.1e+08 L⁻¹ and 4.1e+08 L⁻¹ and 8.2e+08 L⁻¹ and 4.6e+08 L⁻¹ and 3.8e+08 L⁻¹ and 5.6e+08 L⁻¹ in series [1] (setting [3]); 2.8e+08 L⁻¹ and 3.1e+08 L⁻¹ and 4.9e+08 L⁻¹ and 3.6e+08 L⁻¹ and 4.4e+08 L⁻¹ and 2.2e+08 L⁻¹ and 5.2e+08 L⁻¹ and 3.3e+08 L⁻¹ in series [1] (setting [4]). The cytotoxic effects entry with human neutrophils and in the series with human PBMCs was “no cytotoxic effects” each time. The cell viability result in the series on J774.2 mouse macrophages is on record as “reduced”.
As for `C[C@@H]1C[C@H]2[C@@H]3CCC4=CC(=O)C=C[C@]4(C)[C@@]3(F)[C@@H](O)C[C@]2(C)[C@@]1(O)C(=O)CO` [Dexamethasone], in series [1] (Experiment 1, 1 mg/kg (IP)), the “Neutrophils in BALF: % reduction” value worked out at 47%; the “Total cells/white blood cells in BALF: % reduction” value amounted to 75%; the “Neutrophils in BALF, Mean” value stood at 2.8e+08 L⁻¹; the “Total cells/white blood cells in BALF, Mean” value was 4.3e+08 L⁻¹. For the same molecule, in series [1] (setting [5]), the “Neutrophils in BALF, individual mice” value is 2.5e+08 L⁻¹ and 1.2e+08 L⁻¹ and 2.9e+08 L⁻¹ and 2.6e+08 L⁻¹ and 3e+08 L⁻¹ and 3.9e+08 L⁻¹ and 3.1e+08 L⁻¹; the “Total cells/white blood cells in BALF, individual mice” value is 3.9e+08 L⁻¹ and 3.8e+08 L⁻¹ and 4.1e+08 L⁻¹ and 2.3e+08 L⁻¹ and 4.5e+08 L⁻¹ and 5.2e+08 L⁻¹ and 6.3e+08 L⁻¹. Further, in series [1] (Experiment 2, 0.5 mg/kg (PO)), the “Neutrophils in BALF: % reduction” value came to 61%; the “Total cells/white blood cells in BALF: % reduction” value is given as 78%; the “Neutrophils in BALF, Mean” value turned out to be 2.4e+08 L⁻¹; the “Total cells/white blood cells in BALF, Mean” value was 5e+08 L⁻¹. In addition, in series [1] (setting [6]), the “Neutrophils in BALF, individual mice” value was 2.5e+08 L⁻¹ and 2e+08 L⁻¹ and 3.4e+08 L⁻¹ and 1.9e+08 L⁻¹ and 2.3e+08 L⁻¹ and 3.1e+08 L⁻¹ and 1.7e+08 L⁻¹; the “Total cells/white blood cells in BALF, individual mice” value was 7e+08 L⁻¹ and 2.9e+08 L⁻¹ and 5.5e+08 L⁻¹ and 4.4e+08 L⁻¹ and 7.7e+08 L⁻¹ and 3.6e+08 L⁻¹.

Source of the values: paper PMC8480901 (PLoS ONE, 2021).
